Assay results: patent US20240041050A1, “CELL PENETRATING PEPTIDE MEDIATED RNA TRANSDUCTION WITHIN INSECT CELLS” (PIONEER HI-BRED INTERNATIONAL, INC., priority 2020, published 2024)
Ends that are not written are not given here.

What was measured:
[1] = tested on: S2 cells; test: CPP-mediated enhancement of Cy3-dsRNA uptake into insect cells; assay type: cell-based, Drosophila melanogaster
Source text: (§1) Sample preparation and analysis methods were based on those previously reported (Jafari et al. (201 4) “Serum stability and physicochemical characterization of a novel amphipathic peptide C6M 1 for siRNA delivery”, PLoS One, 9(5), e97797; and Gillet et al. (2017) “Investigating Engineered Ribonucleoprotein Particles to Improve Oral RNAi Delivery in Crop Insect Pests”, Frontiers in Physiology, 8(256), doi: 10.3389/fphys.2017.00256). Reagents are described in Examples 1 and 2. Nanocomplex samples were prepared in one of several ways, depending on type of CPP, RNA, or assay. For insect cell-based assays with CPP-FAM or CPP·mRNA, increasing amounts of CPP (from 25 μM to 100 μM, in 25 μM increments) were used alone or mixed with […] mRNA in water and incubated at 25° C. for 15 minutes prior to cell treatment. […] Final optimal CPP concentration was assessed by amount of fluorescent signal apparent within cells. […] Final optimal molar ratio selected for cell experiments were determined by increase of the apparent size of the Cy3-dsRNA band on a native agarose gel (FIG. 2A and FIG. 2B), and/or appearance and increase in size of the complex peak detected by a Zetasizer Ultra (Malvern Panalytical, Malvern, United Kingdom) DLS instrument (FIG. 2C). […] Final optimal BAPC1 concentration was assessed by amount of fluorescent signal apparent within cells. […]

[2] = tested on: Sf9 cells; test: as above; assay type: cell-based, Spodoptera frugiperda
Source text: as §1

[3] = same amount as used in the complexes, no CPP

Row | Substance | fluorescent signal of YFP or Cy3 in single-component treated cells [1, 3] | fluorescent signal in single-component treated cells [2, 3] | internalization of Cy3-dsRNA versus Cy3-dsRNA alone ([1]; 17.6 μg BAPC1 and 100 ng Cy3-dsRNA, N/P ratio of 15) | internalization of Cy3-dsRNA versus Cy3-dsRNA alone ([2]; 5.9 μg BAPC1 and 100 ng Cy3-dsRNA, N/P ratio of 5, 4 hours)
1 | UCCUUGAUAUCCGGUUCGGUA / AGGAACUAUAGGCCAAGCCAU (Cy3 at each 5' end, chemistry not fully specified; one strand is listed 3' to 5') [Cy3-siRNA] | Low or no fluorescent signal | Low or no fluorescent signal |  | 
2 | bis(FLIVI)-K-KKKK; bis(FLIVIGSII)-K-KKKK (chain 1 FLIVIK(FLIVI)KKKK; chain 2 FLIVIGSIIK(FLIVIGSII)KKKK; also: forms branched peptide capsules) [BAPC1] |  |  | increased internalization of labeled dsRNA | Increased internalization of labeled dsRNA
